Laboratory results as given in patent US20040127403A1, “Methods for treating and preventing Gram-positive bacteremias” (priority 2002, published 2004).
Where “and” joins values, the source holds several entries; their conditions need not be identical. Equal values may be shown once.

How the values were obtained:
[1] = Single dose study in healthy male volunteers: absorption and fecal recovery; assay type: in vivo, human
Method: The absorption, tolerability, and recovery of ramoplanin following single dose oral administration were investigated in male volunteers. Ramoplanin was administered as an aqueous solution at a dose of 100, 200, 500, or 1000 mg to fasting subjects. Serum samples were obtained prior to drug administration of ramoplanin and 0.5, 1, 2, 3, 6, 9, 12, 24, 48, 72, and 96 hours after treatment. Urine samples were collected prior to administration of ramoplanin and over the periods 0-3, 3-6, 6-12, 12-24, 24-48, 48-72, and 72-96 hours after dosing. Fecal samples were collected prior to dosing and over the periods 0-16 (Day 1), 16-40 (Day 2), 40-64 (Day 3), 64-88 (Day 4), and 88-96 (Day 5) hours after dosing. A microbiological assay employing Bacillis subtilis ATCC 6633 as the test organism was used to determine ramoplanin concentrations in serum, urine, and feces. The limits of quantitation for this assay were 0.02 μg/mL in serum, 0.012 μg/mL in urine, and 3 μg/g in feces. Tolerability was assessed on the basis of clinical signs and symptoms and the results of blood and urine laboratory tests.

[2] = Bioavailability and serum pharmacokinetics in Beagle dogs; assay type: in vivo
Method: The bioavailability of a 300 mg/kg ramoplanin oral gelatin capsule and the serum pharmacokinetics of a 5 mg/kg intravenous dose were examined in four male Beagle dogs.

[3] = test system: peptidoglycan synthesis; assay: Macromolecular biosynthesis (carbon-14 precursor incorporation); assay type: cell-based; conditions: ramoplanin at the MIC
Method: (§1) The efficacy of ramoplanin was tested against recently isolated VRE that are resistant to linezolid and quinupristin/dalfopristin. The culture media containing ramoplanin was supplemented with 0.02% bovine serum albumin (BSA) to prevent ramoplanin binding to the plastic. MIC values were determined in both cation-adjusted Mueller-Hinton broth (CAMHB) and trypticase soy broth (TSB) by the National Committee for Clinical Laboratory Standards (NCCLS) broth microdilution method. Macromolecular biosynthesis experiments were done by following the incorporation of carbon-14-labeled N-acetylglucosamine, acetic acid, amino acids, uridine, and thymidine into peptidoglycan, fatty acid, protein, RNA and DNA, respectively.

[4] = test system: E. faecium A6350 Line-R; assay: MIC, NCCLS broth microdilution; assay type: cell-based
Outline: (§2)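 MIC values come from NCCLS broth microdilution run in cation-adjusted Mueller-Hinton broth as well as trypticase soy broth. Ramoplanin-containing media included 0.02% BSA against plastic binding.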

[5] = test system: S. aureus ATCC27660 MSSA; assay: MIC, NCCLS broth microdilution; assay type: cell-based
Outline: as §2

[6] = test system: S. aureus ATCC19636 MSSA; assay: MIC, NCCLS broth microdilution; assay type: cell-based
Outline: as §2

[7] = test system: E. faecium ATCC700221; assay: MIC, NCCLS broth microdilution; assay type: cell-based; conditions: E. faecium ATCC700221
Outline: as §2

[8] = test system: S. aureus ATCC35556 MRSA; assay: MIC, NCCLS broth microdilution; assay type: cell-based
Outline: as §2

[9] = test system: E. faecium A 6350 Line-R; assay: MIC, NCCLS broth microdilution; assay type: cell-based; conditions: E. faecium A 6350 Line-R (Table 2)
Outline: as §2

[10] = test system: E. faecium A4192 Syn-R; assay: MIC, NCCLS broth microdilution; assay type: cell-based
Outline: as §2

[11] = test system: VanA strain of E. faecium (VRE); assay: Suppression of VRE in a mouse colonization model; assay type: in vivo, Mice
Method: Mice were colonized with a clinical isolate VanA strain of E. faecium (VRE) isolated from a septicemic patient. A single inoculation of 5×10^8 cfu VRE by oral gavage (Day 0) was followed by treatment with vancomycin in the drinking water to maintain colonization. On day 22, each group received the same vancomycin-containing drinking water. One group also received ramoplanin (100 μg/mL) in its drinking water. The dose of ramoplanin per day was estimated to be 15 mg/kg, based on a standard water consumption of 150 mL/kg/day. Treatment with ramoplanin was discontinued on Day 29, and vancomycin treatment was discontinued on Day 36. The control group consisted of five mice, while the ramoplanin group consisted of four mice.

[12] = test system: VRE; assay: Time-kill studies against VRE; assay type: cell-based
[13] = test system: VRE; assay: MIC against VRE, NCCLS broth microdilution; assay type: cell-based; conditions: all VRE in this study cultured in CAMHB
Method: as §1

[14] = Oral formulation study: ramoplanin in feces, plasma and urine; assay type: in vivo, human; conditions: 400 mg b.i.d. seven days
Method: To further elucidate the pharmacodynamics and intestinal bioavailability, healthy male volunteers (18-45 years; BMI—19-29 kg/m^2) were administered oral ramoplanin (400 mg b.i.d.) for seven days and fecal Enterococci were monitored. Ramoplanin was administered to six subjects as a granulated powder admixed with Orasweet® syrup vehicle.

[15] = Day 29, completion of ramoplanin therapy, 25 mg/kg/day vancomycin + 15 mg/kg/day ramoplanin in drinking water

Ramoplanin
subjects with ramoplanin still detectable in feces ([1]; fourth day of study, single oral dose): 17 of 24
ramoplanin in serum/plasma or urine ([1]; healthy male volunteers, single oral doses up to 1000 mg and multiple oral doses 200, 400, 800 mg B.I.D. 10 days, bioassay and HPLC): not detected
Mean cumulative recovery of ramoplanin in feces ([1]; single oral dose 100 mg): 67.7 % of the administered dose
Mean maximum concentration in feces ([1]; single oral dose 100 mg): 214 µg/g
cumulative recovery of ramoplanin in feces, range ([1]; single oral dose 100 mg): 55.7-84 % of the administered dose
maximum concentration in feces, range ([1]; single oral dose 100 mg): 148 to 278 µg/g
Mean cumulative recovery of ramoplanin in feces ([1]; single oral dose 200 mg): 48.5 % of the administered dose
Mean maximum concentration in feces ([1]; single oral dose 200 mg): 287 µg/g
cumulative recovery of ramoplanin in feces, range ([1]; single oral dose 200 mg): 39.3-56.5 % of the administered dose
maximum concentration in feces, range ([1]; single oral dose 200 mg): 164 to 454 µg/g
Mean cumulative recovery of ramoplanin in feces ([1]; single oral dose 500 mg): 52.8 % of the administered dose
Mean maximum concentration in feces ([1]; single oral dose 500 mg): 1655 µg/g
cumulative recovery of ramoplanin in feces, range ([1]; single oral dose 500 mg): 41.3-79.6 % of the administered dose
maximum concentration in feces, range ([1]; single oral dose 500 mg): 737 to 3316 µg/g
Mean cumulative recovery of ramoplanin in feces ([1]; single oral dose 1000 mg): 46.4 % of the administered dose
Mean maximum concentration in feces ([1]; single oral dose 1000 mg): 1835 µg/g
cumulative recovery of ramoplanin in feces, range ([1]; single oral dose 1000 mg): 39.9-58.4 % of the administered dose
maximum concentration in feces, range ([1]; single oral dose 1000 mg): 1336 to 3154 µg/g
time of maximum ramoplanin concentration and maximum percentage recovery in feces ([1]; single oral dose 100-1000 mg): the day after administration (Day 2)
distribution to tissues [2]: not distributed widely to tissues
mean absorption time ([2]; 300 mg/kg oral gelatin capsule): 8.19 ± 3.12 h
absolute bioavailability ([2]; 300 mg/kg oral gelatin capsule vs 5 mg/kg intravenous): less than 1%
first macromolecular biosynthetic pathway inhibited [3]: peptidoglycan synthesis
MIC ([4]; CAMHB): 0.25, 0.25 μg/ml
MIC ([4]; TSB): 0.5, 0.5 μg/ml
MIC ([4]; Table 6, 1st): 0.25 µg/mL
MIC ([4]; Table 6, 2nd): 0.25 µg/mL
MIC ([5]; CAMHB): 0.5 µg/mL and 1 µg/mL
MIC ([5]; TSB): 0.25, 0.25 μg/ml
MIC ([5]; Table 6, 1st): 2 µg/mL
MIC ([5]; Table 6, 2nd): 1 µg/mL
MIC ([6]; CAMHB): 0.5, 0.5 μg/ml
MIC ([6]; TSB): 0.25, 0.25 μg/ml
MIC ([6]; Table 6, 1st): 1 µg/mL
MIC ([6]; Table 6, 2nd): 1 µg/mL
MIC ([7]; CAMHB): 0.25, 0.25 μg/ml
MIC ([7]; TSB): 0.5, 0.5 μg/ml
MIC ([7]; Table 6, 1st): 0.25 µg/mL
MIC ([7]; Table 6, 2nd): 0.25 µg/mL
MIC ([8]; CAMHB): 0.5, 0.5 μg/ml
MIC ([8]; TSB): 0.125, 0.125 μg/ml
MIC ([8]; Table 6, 1st): 1 µg/mL
MIC ([8]; Table 6, 2nd): 0.5 µg/mL
MIC ([9]; CAMHB): 0.25, 0.25 μg/ml
MIC ([9]; TSB): 0.25, 0.25 μg/ml
MIC ([10]; CAMHB): 0.25, 0.25 μg/ml
MIC ([10]; TSB): 0.5, 0.5 μg/ml
MIC ([10]; Table 6, 1st): 0.25 µg/mL
MIC ([10]; Table 6, 2nd): 0.5 µg/mL
% Mice with VRE [11, 15]: 0%
Enterococci in faeces: Total Enterococci [11, 15]: <2.4 log 10 cfu/g faeces
Enterococci in faeces: VRE [11, 15]: <3.1 log 10 cfu/g faeces
VRE concentration per gram of feces ([11]; mice, after one week of ramoplanin treatment, all animals (undetectable level)): < 3.1 log units
VRE concentration per gram of feces ([11]; mice, before ramoplanin treatment): 9.7 log units
fecal density and carriage of VRE ([11]; mice, ramoplanin 100 μg/mL in drinking water): significantly reduced
time-kill activity [12]: bactericidal activity
MIC [13]: 0.125 to 0.25 µg/mL
fecal ramoplanin concentration [14]: 0.56 to 2.65 mg/g
ramoplanin concentration in plasma or urine ([14]; any subject): No measurable ramoplanin concentration was detected
